For one compound, Kd results are on record in PMC9196137 (SLAS discovery : advancing life sciences R & D, 2022).

The assay has as its target Mcm2–7 complex. The assay is described as follows: thermal shift assay. The class given is binding, Saccharomyces cerevisiae.

On to `CNC(=O)c1cc2c(cn1)[nH]c1ccccc12` [CMA, β-carboline-3-carboxylic acid N-methylamide], for which the Kd is 119 µM.
